# System: injured cartilage explants, PGE2 synthesis
# Assay: drop tower design model: PGE2 synthesis
# Format: cell-based, bovine
# Details: cocktail of cytokines
# Description: The device comprises a vertical rail that guides a sliding weight from 0.1 kg to 3 kg directly onto a force transducer which is situated at the bottom of the device. A sphere-shaped 2 mm indenter resting on a specimen is located at the bottom of the vertical rail. The indenter is held by a stop screw. The specimen is rigidly attached to a tissue holder underneath the indenter, to avoid side movements, the specimen is rigidly attached to the tissue holder. In this manner, the force transducer transduces a force indirectly onto the specimen. Adjusting the weight of a mass and height from which the mass drops varies the magnitude of the intended impact. For example, a weight mass (e.g., […]) held by a weight holder can be released from a height of e.g., 36 cm and dropped onto the force transducer. […]
# In the first method, bovine or human PBMCs were freshly prepared using Ficoll gradient by Lampire Biological Laboratories, Inc. PBMCs in RPMI w/10% FCS at delivery were spun down at 1500 rpm for twenty minutes and the cell pellet was washed twice with 1×PBS to wash off the residual Ficoll. […] Each conditioned medium was assessed for levels of pro-inflammatory cytokines to ensure their secretion from PBMC. […]
# PGE2 was measured with STAT-Prostaglandin E2 EIA ELISA kit (Cayman Biochemicals), as described in Example III above. […]
compound,measurement,value
"OCCC#Cc1nc(-c2ccc(F)cc2)c(-c2ccncc2)n1CCCc1ccccc1 [JNJ 3026582 (RWJ 67657), 4-[4-(4-fluorophenyl)-1-(3-phenylpropyl)-5-(4-pyridinyl)-1H-imidazol-2-yl]-3-butyn-1-ol]","PGE2 synthesis, inhibition",dose-dependently inhibited
